Tests used:
cells = assay: apoptosis induction / cell cycle measurements in cells; assay type: cell-based
[1] = target: MDR-1 gene product P-glycoprotein (Homo sapiens, UniProt P08183); assay: P-glycoprotein-mediated substrate efflux; assay type: cell-based
Sequence of MDR-1 gene product P-glycoprotein (P08183 whole entry): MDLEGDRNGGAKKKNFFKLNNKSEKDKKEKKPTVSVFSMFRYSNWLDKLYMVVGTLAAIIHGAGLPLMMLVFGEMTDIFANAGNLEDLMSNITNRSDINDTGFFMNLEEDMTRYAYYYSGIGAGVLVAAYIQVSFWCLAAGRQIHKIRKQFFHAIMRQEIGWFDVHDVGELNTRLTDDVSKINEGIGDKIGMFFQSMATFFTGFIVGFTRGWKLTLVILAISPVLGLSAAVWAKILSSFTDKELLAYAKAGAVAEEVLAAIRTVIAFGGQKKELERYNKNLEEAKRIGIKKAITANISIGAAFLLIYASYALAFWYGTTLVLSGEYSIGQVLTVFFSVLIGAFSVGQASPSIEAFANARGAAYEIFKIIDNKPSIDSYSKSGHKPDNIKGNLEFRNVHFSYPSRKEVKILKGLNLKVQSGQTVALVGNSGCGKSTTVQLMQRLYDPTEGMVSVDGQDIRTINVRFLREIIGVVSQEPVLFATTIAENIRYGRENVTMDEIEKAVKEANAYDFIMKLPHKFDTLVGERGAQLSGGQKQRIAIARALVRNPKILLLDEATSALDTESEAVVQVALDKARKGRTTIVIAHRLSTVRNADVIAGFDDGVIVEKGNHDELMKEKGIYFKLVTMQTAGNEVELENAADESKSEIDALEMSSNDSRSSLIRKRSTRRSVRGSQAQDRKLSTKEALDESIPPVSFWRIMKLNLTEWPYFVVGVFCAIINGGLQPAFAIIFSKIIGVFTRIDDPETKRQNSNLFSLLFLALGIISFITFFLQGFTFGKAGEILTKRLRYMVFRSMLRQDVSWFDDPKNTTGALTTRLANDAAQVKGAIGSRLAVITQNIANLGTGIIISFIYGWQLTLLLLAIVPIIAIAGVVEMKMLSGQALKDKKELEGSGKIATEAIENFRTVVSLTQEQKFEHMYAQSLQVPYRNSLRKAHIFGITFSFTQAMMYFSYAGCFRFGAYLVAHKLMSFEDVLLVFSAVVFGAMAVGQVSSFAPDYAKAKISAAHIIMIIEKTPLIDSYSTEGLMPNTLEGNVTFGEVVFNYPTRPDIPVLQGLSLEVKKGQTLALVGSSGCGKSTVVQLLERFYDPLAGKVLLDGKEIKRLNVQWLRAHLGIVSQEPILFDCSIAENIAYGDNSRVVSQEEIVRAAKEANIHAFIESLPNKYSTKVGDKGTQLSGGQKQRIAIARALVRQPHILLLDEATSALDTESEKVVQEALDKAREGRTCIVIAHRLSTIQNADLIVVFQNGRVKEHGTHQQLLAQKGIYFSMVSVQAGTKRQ

COc1cc([C@@H]2c3cc4c(cc3[C@@H](O[C@@H]3O[C@@H]5CO[C@@H](C)O[C@H]5[C@H](O)[C@H]3O)[C@H]3COC(=O)[C@H]23)OCO4)cc(OC)c1O [etoposide]
apoptosis is complete after (cells): 48 h
effect on P-glycoprotein [1]: ineffective
retention in cells / efflux [1]: pumped out of the cells
